Here are results for 23 compounds from patent US6251919A, “Heterocyclic substituted aniline calcium channel blockers” (Warner-Lambert, priority 1999, dated 2001).

Molecules are shown by their SMILES. pIC50: −log10 of the molar value.

The assay concerns the target T1, N-type Ca^2+ channel in IMR-32 cells (Homo sapiens, UniProt Q00975).
T1 construct: host or cells: IMR-32 (differentiated with dibutyryl cAMP and bromodeoxyuridine)
Briefly: N-type Ca2+ channel blockade in IMR-32 cells (fluorescent Ca2+ indicator Indo-1). The assay is classed as cell-based. The conditions noted are these: 5 μM nitrendipine present; for inhibition at 1 µM: IMR-32, 1 μM; for inhibition at 10 µM: IMR-32, 10 μM.

T1 sequence (Q00975 whole entry): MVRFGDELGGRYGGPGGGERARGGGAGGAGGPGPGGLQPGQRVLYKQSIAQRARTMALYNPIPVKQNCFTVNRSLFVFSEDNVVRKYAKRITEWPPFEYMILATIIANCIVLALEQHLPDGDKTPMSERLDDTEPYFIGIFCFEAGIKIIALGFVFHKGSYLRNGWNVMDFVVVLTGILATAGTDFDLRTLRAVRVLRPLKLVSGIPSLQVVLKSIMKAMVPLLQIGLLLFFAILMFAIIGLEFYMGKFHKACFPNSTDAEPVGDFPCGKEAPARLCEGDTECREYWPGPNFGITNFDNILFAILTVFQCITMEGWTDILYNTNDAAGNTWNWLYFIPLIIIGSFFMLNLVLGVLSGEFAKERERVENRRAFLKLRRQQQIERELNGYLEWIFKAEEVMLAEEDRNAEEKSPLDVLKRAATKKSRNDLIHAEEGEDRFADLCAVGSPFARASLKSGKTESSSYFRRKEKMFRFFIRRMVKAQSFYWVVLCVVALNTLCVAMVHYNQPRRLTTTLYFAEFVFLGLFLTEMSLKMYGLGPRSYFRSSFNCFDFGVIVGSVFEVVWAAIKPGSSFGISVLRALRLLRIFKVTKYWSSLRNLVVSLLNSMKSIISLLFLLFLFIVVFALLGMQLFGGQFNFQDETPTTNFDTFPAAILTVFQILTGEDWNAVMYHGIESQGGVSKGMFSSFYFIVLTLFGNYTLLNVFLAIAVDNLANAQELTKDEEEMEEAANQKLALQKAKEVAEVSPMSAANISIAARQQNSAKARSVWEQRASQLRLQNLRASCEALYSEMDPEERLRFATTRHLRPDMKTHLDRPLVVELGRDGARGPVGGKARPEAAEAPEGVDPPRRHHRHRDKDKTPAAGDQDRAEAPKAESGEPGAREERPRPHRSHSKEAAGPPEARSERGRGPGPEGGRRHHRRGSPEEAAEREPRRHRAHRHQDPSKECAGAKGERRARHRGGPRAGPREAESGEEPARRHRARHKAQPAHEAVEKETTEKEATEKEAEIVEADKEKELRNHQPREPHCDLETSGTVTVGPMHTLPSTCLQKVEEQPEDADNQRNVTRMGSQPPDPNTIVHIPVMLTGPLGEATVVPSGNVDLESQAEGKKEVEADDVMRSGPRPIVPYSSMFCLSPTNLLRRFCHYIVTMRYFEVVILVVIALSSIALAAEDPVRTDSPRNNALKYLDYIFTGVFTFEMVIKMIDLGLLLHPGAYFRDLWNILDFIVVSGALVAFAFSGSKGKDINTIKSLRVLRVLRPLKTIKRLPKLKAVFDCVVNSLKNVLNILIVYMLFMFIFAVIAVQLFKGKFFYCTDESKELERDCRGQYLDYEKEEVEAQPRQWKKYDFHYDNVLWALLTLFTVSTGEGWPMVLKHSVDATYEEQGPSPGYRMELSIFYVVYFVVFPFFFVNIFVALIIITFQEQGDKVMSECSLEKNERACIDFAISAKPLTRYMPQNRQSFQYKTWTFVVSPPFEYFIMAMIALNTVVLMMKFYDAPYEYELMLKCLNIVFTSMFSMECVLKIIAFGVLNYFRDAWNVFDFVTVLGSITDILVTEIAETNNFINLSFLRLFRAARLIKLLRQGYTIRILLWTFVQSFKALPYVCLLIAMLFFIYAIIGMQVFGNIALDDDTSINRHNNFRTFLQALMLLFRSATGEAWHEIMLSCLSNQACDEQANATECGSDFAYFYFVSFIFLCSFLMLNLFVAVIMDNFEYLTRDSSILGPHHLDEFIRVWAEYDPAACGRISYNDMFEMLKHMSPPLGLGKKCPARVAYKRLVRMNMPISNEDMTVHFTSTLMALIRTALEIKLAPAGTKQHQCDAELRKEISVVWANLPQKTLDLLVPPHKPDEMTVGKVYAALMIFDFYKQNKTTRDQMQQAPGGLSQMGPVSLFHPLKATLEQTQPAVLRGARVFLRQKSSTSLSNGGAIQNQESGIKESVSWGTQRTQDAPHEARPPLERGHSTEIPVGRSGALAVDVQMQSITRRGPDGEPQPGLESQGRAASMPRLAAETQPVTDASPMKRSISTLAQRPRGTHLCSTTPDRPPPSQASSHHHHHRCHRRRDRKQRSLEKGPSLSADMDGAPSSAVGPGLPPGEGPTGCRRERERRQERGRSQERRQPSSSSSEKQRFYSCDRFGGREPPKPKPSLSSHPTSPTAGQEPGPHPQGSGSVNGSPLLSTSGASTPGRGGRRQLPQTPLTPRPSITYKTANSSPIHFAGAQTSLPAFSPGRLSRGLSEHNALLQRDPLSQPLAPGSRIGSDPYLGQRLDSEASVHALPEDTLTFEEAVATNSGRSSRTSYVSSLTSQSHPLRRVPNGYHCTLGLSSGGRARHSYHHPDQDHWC

`CC(C)=CCN(c1ccc(OCc2ccccc2)cc1)C1CCN(Cc2ccc(C(C)(C)C)cc2)CC1` [Example 3, (4-Benzyloxy-phenyl)-[1-(4-tert-butyl-benzyl)-piperidin-4-yl]-(3-methyl-but-2-enyl)-amine]: the inhibition at 1 µM turned out to be 96%. `CC(C)=CCN(c1ccc(OCc2ccccc2)cc1)C1CCN(Cc2ccc(Br)cc2)CC1` [Example 4, (4-Benzyloxy-phenyl)-[1-(4-bromo-benzyl)-piperidin4-yl]-(3-methyl-but-2-enyl)-amine] registered an inhibition at 1 µM of 63% and an inhibition at 10 µM of 94%. Taken in the same sequence, the figures for `CC(C)=CCN(c1ccc(OCc2ccccc2)cc1)C1CCN(Cc2ccccn2)CC1` [Example 9, (4-Benzyloxy-phenyl)-(3-methyl-but-2-enyl)-(1-pyridin-2-ylmethyl-piperidin-4-yl)-amine] were 30% and 100%. `CC(C)=CCN(c1ccc(OCc2ccccc2)cc1)C1CCN(C2CCOCC2)CC1` [Example 10, (4-Benyloxy-phenyl)-(3-methyl-but-2-enyl)-[1-(tetrahydro-pyran4-yl)-piperidin-4-yl]-amine]: the inhibition at 1 µM was 15% and the inhibition at 10 µM is 62%. On the same counts, the results for `CC(C)=CCN(c1ccc(OCc2ccccc2)cc1)C1CCN(C(=O)C2CCCCN2CCC(C)C)CC1` (stereo not shown) [Example 11, {4-[(4-Benzyloxy-phenyl)-(3-methyl-but-2-enyl)-amino]-piperidin-1-yl}-[1-(3-methyl-butyl)-piperidin-2-yl]-methanone] are 41% and 80%.

Regarding `CC(C)=CCN(c1ccc(OCc2ccccc2)cc1)C1CCN(C(=O)C2CCCN(CCC(C)C)C2)CC1` (stereo not shown) [Example 12, {4-[(4-Benzyloxy-phenyl)-(3-methyl-but-2-enyl)-amino]-piperidin-1-yl}-[1-(3-methyl-butyl)-piperidin-3-yl]-methanone], the inhibition at 1 µM came to 49% and testing at 10 µM gave an inhibition of 75%. On the same counts, the results for `CC(C)=CCN(c1ccc(OCc2ccccc2)cc1)C1CCN(C(=O)C2CCN(CCC(C)C)CC2)CC1` [Example 13, {4-[(4-Benzyloxy-phenyl)-(3-methyl-but-2-enyl)-amino]-piperidin-1-yl}-[1-(3-methyl-butyl)-piperidin-4-yl]-methanone] are 37% and 75%. Compound `CC(C)=CCN(c1ccc(OCc2ccccc2)cc1)C1CCN(C(=O)C2CN(C)CCN2CCC(C)C)CC1` (stereo not shown) [Example 14, {4-[(4-Benzyloxy-phenyl)-(3-methyl-but-2-enyl)-amino]-piperidin-1-yl}-[4-methyl-1-(3-methyl-butyl)-piperazin-2-yl]-methanone] registered an inhibition at 1 µM of 44% and an inhibition at 10 µM of 88%.

The compound `CC(C)=CCN(c1ccc(OCc2ccccc2)cc1)C1CCN(C(=O)C2CCCC(C)N2CCC(C)C)CC1` (stereo not shown) [Example 16, {4-[(4-Benzyloxy-phenyl)-(3-methyl-but-2-enyl)-amino]-piperidin-1-yl}-[6methyl-1-(3-methyl-butyl)-piperidin-2-yl]-methanone] showed an inhibition at 1 µM of 45% and an inhibition at 10 µM of 78%. On the same counts, the results for `CC(C)=CCN(c1ccc(OCc2ccccc2)cc1)C1CCN(C(=O)C2CC(C)CCN2CCC(C)C)CC1` (stereo not shown) [Example 17, {4-[(4-Benzyloxy-phenyl)-(3-methyl-but-2-enyl)-amino]-piperidin-1-yl}-[4-methyl-1-(3-methyl-butyl)-piperidin-2-yl]-methanone] are 86% and 76%. On the same counts, the results for `CC(C)=CCN(c1ccc(OCc2ccccc2)cc1)C1CCN(C(=O)C2C(C)CCCN2CCC(C)C)CC1` (stereo not shown) [Example 18, {4-[(4-Benzyloxy-phenyl)-(3-methyl-but-2-enyl)-amino]-piperidin-1-yl}-[3-methyl-1-(3-methyl-butyl)-piperidin-2-yl]-methanone] are 60% and 88%. `CC(C)=CCN(c1ccc(OCc2ccccc2)cc1)C1CCN(Cc2ccco2)CC1` [Example 21, (4-Benzyloxy-phenyl)-(1-furan-2-ylmethyl-piperidin-4-yl)-(3-methyl-but-2-enyl)-amine] gave a negative logarithm of the IC50 (pIC50) of 5.41. The same measure, in the same setting: the result for `CC(C)=CCN(c1ccc(OCc2ccccc2)cc1)C1CCN(CCCc2ccccc2)CC1` [Example 22, (4-Benzyloxy-phenyl)-(3-methyl-but-2-enyl)-[1-(3-phenyl-propyl)-piperidin-4-yl]-amine] reads 6.30.

`CC(C)=CCN(c1ccc(OCc2ccccc2)cc1)C1CCN(CCc2ccccc2)CC1` [Example 23, (4-Benzyloxy-phenyl)-(3-methyl-but-2-enyl)-(1-phenethyl-piperidin-4-yl)-amine] showed a pIC50 of 6.52. Take `CC(C)=CCN(c1ccc(OCc2ccccc2)cc1)C1CCN(Cc2ccc(S(C)(=O)=O)cc2)CC1` [Example 24]: the negative-log IC50 (pIC50) was 5.74. In turn, `CC(C)=CCN(c1ccc(OCc2ccccc2)cc1)C1CCN(Cc2ccc(F)cc2)CC1` [Example 25, (4-Benzyloxy-phenyl)-[1-(4-fluoro-benzyl)-piperidin4-yl]-(3-methyl-but-2-enyl)-amine] registered an inhibition at 1 µM of 62%. `CC(C)=CCN(c1ccc(C(C)C)cc1)C1CCN(CCC(C)(C)C)CC1` [Example 26, [1-(3,3-Dimethyl-butyl)-piperidin-4-yl]-(4-isopropyl-phenyl)-(3-methyl-but-2-enyl)-amine] returned an inhibition at 1 µM of 43%. Same read-out and setting: under `CC(C)=CCN(c1ccc(C(C)C)cc1)C1CCN(CCC(C)O)CC1` (stereo not shown) [Example 27, 4-{4[(4Isopropyl-phenyl)-(3-methyl-but-2-enyl)-amino]-piperidin-1-yl}-butan-2ol] stands 15%. On the same count and under the same terms, the result for `CC(C)=CCN(c1ccc(C(C)C)cc1)C1CCN(CCC(C)C)CC1` [Example 28, (4-Isopropyl-phenyl)-(3-methyl-but-2-enyl)-[1-(3-methyl-butyl)-piperidin-4-yl]-amine] reads 41%. Consider `CC(C)=CCN(c1ccc(C(C)C)cc1)C1CCN(Cc2ccc(F)cc2)CC1` [Example 29, [1-(4-Fluoro-benzyl)-piperidin-4-yl]-(4-isopropyl-phenyl)-(3-methyl-but-2-enyl)-amine], for which the inhibition at 1 µM worked out at 17% and the inhibition at 10 µM was determined as 84%. Taken in the same sequence, the figures for `CC(C)=CCN(c1ccc(C(C)C)cc1)C1CCN(Cc2cccnc2)CC1` [Example 30, (4-Isopropyl-phenyl)-(3-methyl-but-2-enyl)-(1-pyridin-3-ylmethyl-piperidin-4-yl)-amine] were 18% and 79%. On the same counts, the results for `CC(C)=CCN(c1ccc(C(C)C)cc1)C1CCN(Cc2c[nH]cn2)CC1` [Example 31, [1-(1H-Imidazol-4-ylmethyl)-piperidin-4-yl]-(4-isopropyl-phenyl)-(3-methyl-but-2-enyl)-amine] are 7% and 62%. On the same counts, the results for `CC(C)=CCN(c1ccc(C(C)C)cc1)C1CCN(C(C)CO)CC1` (stereo not shown) [Example 32, 2-{4-[(4-lsopropyl-phenyl)-(3-methyl-but-2-enyl)-amino]-piperidin-1-yl}-propan-1-ol] are 0% and 70%.

In general, inhibition refers to how much of the control response was suppressed. A low value points to a response near the control. A word on the pIC50: it is the negative decadic logarithm of the IC50, by convention in mol/L. A higher pIC50 goes with a low IC50.
